Data taken from patent publication US20250333377A1, “SOLID FORM OF NAPHTHYLAMINE MITOPHAGY INDUCER, AND PREPARATION METHOD THEREFOR, PHARMACEUTICAL COMPOSITION THEREOF AND USE THEREOF” (HANGZHOU PHECDAMED CO., LTD., priority 2023, published 2025).

Key:
[1] = Crystal form conversion (heat treatment, suspension competition test, DSC analysis); assay type: physicochemical; conditions: for Crystal form conversion / relative stability in suspension competition test: equal amounts mixed, RT/50, magnetic stirring ~1000 rpm, about 20 hours
Text: The mutual conversion relationship among the A, B, C, D crystal forms of the sodium salt is further studied in this embodiment by heat treatment under nitrogen protection and suspension competition test.
However, the methods of heating, suspension pulping as well as grinding can not study the thermodynamic conversion relationship between crystal form A and crystal form D. In order to further study the thermodynamic conversion relationship of crystal form A and crystal form D, analyzed from the DSC pattern, the DSC of crystal form A is shown in FIG. 2, and the DSC of crystal form D is shown in FIG. 11, the melting point of crystal form A is higher than that of crystal form D, whereas the enthalpy of melting of crystal form A is much lower than that of crystal form D. It may be judged from the thermodynamic stability relationship table that if TA>TD, ΔHf, A>ΔHf, D, crystal form A and D is a univariate relationship, crystal form A is stable, if TA>TD, ΔHf, A<ΔHf, D, crystal forms A and D are reciprocal relationships, if the temperature is higher than the transcrystallization temperature, crystal form A is stable, and if the temperature is lower than the transcrystallization temperature, crystal form D is stable.

[2] = Hygroscopicity (vapor sorption analyser, DVS); assay type: physicochemical; conditions: for Percentage weight gain by moisture absorption: 90% RH, 25° C.; for Hygroscopicity (in words): according to Table 7, 90% RH
Procedure: Single crystalline sample of compound TJ01-013 is tested using a Waters vaporsorption analyser. Taking a dry weighing tray, and laying a single sample of crystal form flat in the weighing tray, and the volume of the loaded samples is about ⅓ to ⅔ of that of the weighing tray. Instrument parameters are set as follows: temperature: 25° C.; equilibrium: dm/dt=0.01%/min (minimum time: 10 minutes, and maximum time: 180 minutes); drying: drying 120 minutes under 0% RH; RH (%) testing gradient: 10%; RH (%) test gradient range: 0%-90%-0%.

SMILES	Percentage weight gain by moisture absorption [2] [%]	Hygroscopicity (in words) [2]	other results
O=C(O)C[S+]([O-])c1cc(NS(=O)(=O)c2ccc(Br)cc2)c2ccccc2c1O (stereo not drawn) [Embodiment 1]			Crystal form conversion / relative stability in suspension competition test ([1]; listed as crystal form A): more stable than crystal form B, C
O=C(O)C[S+]([O-])c1cc(NS(=O)(=O)c2ccc(Br)cc2)c2ccccc2c1O (stereo not drawn) [Embodiment 2]			Crystal form conversion / relative stability in suspension competition test ([1]; listed as crystal form B): able to be converted into crystal form A, D; Crystal form conversion on heat treatment ([1]; heating to 106° C. and then cooling to room temperature, nitrogen protection): converted into crystal form C
O=C(O)C[S+]([O-])c1cc(NS(=O)(=O)c2ccc(Br)cc2)c2ccccc2c1O (stereo not drawn) [Embodiment 3]			Crystal form conversion / relative stability in suspension competition test ([1]; listed as crystal form C): able to be converted into crystal form A, D
O=C(O)C[S+]([O-])c1cc(NS(=O)(=O)c2ccc(Br)cc2)c2ccccc2c1O (stereo not drawn) [Embodiment 5]	2.655	slightly hygroscopic	
O=C(O)C[S+]([O-])c1cc(NS(=O)(=O)c2ccc(Br)cc2)c2ccccc2c1O (stereo not drawn) [Embodiment 6]	7.275		
O=C(O)C[S+]([O-])c1cc(NS(=O)(=O)c2ccc(Br)cc2)c2ccccc2c1O (stereo not drawn) [Embodiment 7]	2.313	slightly hygroscopic	
O=C(O)C[S+]([O-])c1cc(NS(=O)(=O)c2ccc(Br)cc2)c2ccccc2c1O (stereo not drawn) [Embodiment 9]	0.7884	slightly hygroscopic	
O=C(O)C[S+]([O-])c1cc(NS(=O)(=O)c2ccc(Br)cc2)c2ccccc2c1O (stereo not drawn) [Embodiment 10]	0.2033	slightly hygroscopic	
O=C(O)C[S+]([O-])c1cc(NS(=O)(=O)c2ccc(Br)cc2)c2ccccc2c1O (stereo not drawn) [Embodiment 11]	1.897	slightly hygroscopic	
O=C(O)C[S+]([O-])c1cc(NS(=O)(=O)c2ccc(Br)cc2)c2ccccc2c1O (stereo not drawn) [Embodiment 12]	6.026		
O=C(O)C[S+]([O-])c1cc(NS(=O)(=O)c2ccc(Br)cc2)c2ccccc2c1O (stereo not drawn) [Embodiment 13]	0.439	slightly hygroscopic	
